According to ChEMBL document CHEMBL1149188, “Synthesis of 2,4-diamino-6-[2'-O-(omega-carboxyalkyl)oxydibenz[b,f]azepin-5-yl]methylpteridines as potent and selective inhibitors of Pneumocystis carinii, Toxoplasma gondii, and Mycobacterium avium dihydrofolate reductase” (J Med Chem, 2004):

Assays:
[1] = target: T1, Bifunctional dihydrofolate reductase-thymidylate synthase (Toxoplasma gondii, UniProt Q07422); experiment: Concentration required to inhibit the Toxoplasma gondii Dihydrofolate reductase by 50% was determined; Range: 23-30
T1 sequence (Q07422 whole entry): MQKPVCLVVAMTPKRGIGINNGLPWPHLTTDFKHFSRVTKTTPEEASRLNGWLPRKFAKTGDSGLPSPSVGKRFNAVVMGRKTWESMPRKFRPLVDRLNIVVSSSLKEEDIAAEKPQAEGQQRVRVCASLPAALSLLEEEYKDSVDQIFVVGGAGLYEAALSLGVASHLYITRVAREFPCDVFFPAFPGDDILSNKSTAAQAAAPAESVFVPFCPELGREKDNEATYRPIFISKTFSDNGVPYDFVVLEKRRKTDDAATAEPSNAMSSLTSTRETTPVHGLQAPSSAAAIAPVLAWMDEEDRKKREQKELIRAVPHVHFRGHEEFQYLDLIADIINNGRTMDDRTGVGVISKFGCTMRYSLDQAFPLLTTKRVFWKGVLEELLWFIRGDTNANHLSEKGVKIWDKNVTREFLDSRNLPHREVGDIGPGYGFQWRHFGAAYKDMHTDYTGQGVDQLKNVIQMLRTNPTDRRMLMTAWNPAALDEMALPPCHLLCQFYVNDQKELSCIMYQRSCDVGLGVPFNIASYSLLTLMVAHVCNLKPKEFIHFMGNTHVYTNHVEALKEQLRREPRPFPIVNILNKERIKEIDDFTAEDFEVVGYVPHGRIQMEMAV

Dihydrofolate reductase [2] = target: T2, Dihydrofolate reductase (Mycobacterium avium, UniProt O30463); experiment: Concentration required to inhibit the Mycobacterium avium Dihydrofolate reductase by 50% was determined; Range: 1.2-1.4
T2 sequence (O30463 whole entry): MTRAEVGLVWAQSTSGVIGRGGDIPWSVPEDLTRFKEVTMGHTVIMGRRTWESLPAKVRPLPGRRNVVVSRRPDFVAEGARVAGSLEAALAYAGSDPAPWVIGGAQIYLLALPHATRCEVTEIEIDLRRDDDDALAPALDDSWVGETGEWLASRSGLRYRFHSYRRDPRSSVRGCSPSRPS

Dihydrofolate reductase [3] = target: T3, Dihydrofolate reductase (Pneumocystis carinii, UniProt P16184)
T3 sequence (P16184 whole entry): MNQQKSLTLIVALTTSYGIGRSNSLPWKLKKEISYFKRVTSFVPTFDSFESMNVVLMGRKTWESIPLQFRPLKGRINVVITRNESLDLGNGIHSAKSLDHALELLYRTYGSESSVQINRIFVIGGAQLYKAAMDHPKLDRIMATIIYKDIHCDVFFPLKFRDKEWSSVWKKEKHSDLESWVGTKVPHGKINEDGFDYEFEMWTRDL

Dihydrofolate reductase [4] = target: T4, Dihydrofolate reductase (Rattus norvegicus, UniProt Q920D2); experiment: Concentration required to inhibit the rat liver Dihydrofolate reductase by 50% was determined; Range: 370-440
T4 sequence (Q920D2 whole entry): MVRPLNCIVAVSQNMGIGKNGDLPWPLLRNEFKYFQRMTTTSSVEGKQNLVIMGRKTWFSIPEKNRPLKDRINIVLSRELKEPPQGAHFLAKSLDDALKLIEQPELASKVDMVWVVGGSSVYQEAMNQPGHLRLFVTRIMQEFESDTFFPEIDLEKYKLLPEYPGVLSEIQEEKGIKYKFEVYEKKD

[5] = Selectivity index was determined by the ratio for IC50 of rat liver DHFR to the IC50 of Mycobacterium avium DHFR; Range: 260-370
[6] = Selectivity index was determined by the ratio for IC50 of rat liver DHFR to the IC50 of Pneumocystis carinii DHFR; Range: 11-16
[7] = Selectivity index was determined by the ratio for IC50 of rat liver DHFR to the IC50 of Toxoplasma gondii DHFR; Range: 12-19
[8] = target: T1, Bifunctional dihydrofolate reductase-thymidylate synthase
Dihydrofolate reductase [9] = target: T2, Dihydrofolate reductase
Dihydrofolate reductase [10] = target: T3, Dihydrofolate reductase; remark: listed apart in the source
Description: Concentration required to inhibit the Pneumocystis carinii Dihydrofolate reductase by 50% was determined; Range: 0.88-1.2

Dihydrofolate reductase [11] = target: T4, Dihydrofolate reductase
[12] = Selectivity index was determined by the ratio for IC50 of rat liver DHFR to the IC50 of Toxoplasma gondii DHFR
[13] = target: T1, Bifunctional dihydrofolate reductase-thymidylate synthase; experiment: Concentration required to inhibit the Toxoplasma gondii Dihydrofolate reductase by 50% was determined; Range: 25-30
Dihydrofolate reductase [14] = target: T2, Dihydrofolate reductase; experiment: Concentration required to inhibit the Mycobacterium avium Dihydrofolate reductase by 50% was determined; Range: 3.6-4.4
Dihydrofolate reductase [15] = target: T3, Dihydrofolate reductase; experiment: Concentration required to inhibit the Pneumocystis carinii Dihydrofolate reductase by 50% was determined; Range: 19-29
Dihydrofolate reductase [16] = target: T4, Dihydrofolate reductase; experiment: Concentration required to inhibit the rat liver Dihydrofolate reductase by 50% was determined; Range: 1100-1200
[17] = Selectivity index was determined by the ratio for IC50 of rat liver DHFR to the IC50 of Mycobacterium avium DHFR; Range: 250-330
[18] = Selectivity index was determined by the ratio for IC50 of rat liver DHFR to the IC50 of Pneumocystis carinii DHFR; Range: 12-63
[19] = Selectivity index was determined by the ratio for IC50 of rat liver DHFR to the IC50 of Toxoplasma gondii DHFR; Range: 37-48
[20] = target: T1, Bifunctional dihydrofolate reductase-thymidylate synthase; experiment: Concentration required to inhibit the Toxoplasma gondii Dihydrofolate reductase by 50% was determined (reported by Hoffman-LaRoche group)
Dihydrofolate reductase [21] = target: T5, Dihydrofolate reductase (Homo sapiens, UniProt P00374); experiment: Concentration required to inhibit the human Dihydrofolate reductase by 50% was determined
T5 sequence (P00374 whole entry): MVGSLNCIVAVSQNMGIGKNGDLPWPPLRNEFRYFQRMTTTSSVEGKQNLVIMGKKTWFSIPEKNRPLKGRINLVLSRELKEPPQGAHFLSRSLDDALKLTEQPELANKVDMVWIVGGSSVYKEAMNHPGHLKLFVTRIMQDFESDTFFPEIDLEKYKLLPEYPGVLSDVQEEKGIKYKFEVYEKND

Dihydrofolate reductase [22] = target: T5, Dihydrofolate reductase; experiment: Concentration required to inhibit the human Dihydrofolate reductase by 50% was determined (reported by Hoffman-LaRoche group)
Dihydrofolate reductase [23] = target: T2, Dihydrofolate reductase; experiment: Concentration required to inhibit the Mycobacterium avium Dihydrofolate reductase by 50% was determined
[24] = Selectivity index was determined by the ratio for IC50 of human DHFR to the IC50 of Mycobacterium avium DHFR
[25] = Selectivity index was determined by the ratio for IC50 of rat liver DHFR to the IC50 of Mycobacterium avium DHFR
[26] = target: T1, Bifunctional dihydrofolate reductase-thymidylate synthase; remark: listed apart in the source
Description: Concentration required to inhibit the Toxoplasma gondii Dihydrofolate reductase by 50% was determined; Range: 8.9-11

Dihydrofolate reductase [27] = target: T3, Dihydrofolate reductase; remark: listed apart in the source
Description: Concentration required to inhibit the Pneumocystis carinii Dihydrofolate reductase by 50% was determined; Range: 0.92-1.3

Dihydrofolate reductase [28] = target: T4, Dihydrofolate reductase; remark: listed apart in the source
Dihydrofolate reductase [29] = target: T2, Dihydrofolate reductase; remark: listed apart in the source
[30] = target: T1, Bifunctional dihydrofolate reductase-thymidylate synthase; experiment: Concentration required to inhibit the Toxoplasma gondii Dihydrofolate reductase by 50% was determined; Range: 20-23
Dihydrofolate reductase [31] = target: T3, Dihydrofolate reductase; experiment: Concentration required to inhibit the Pneumocystis carinii Dihydrofolate reductase by 50% was determined; Range: 9.8-12
[32] = Selectivity index was determined by the ratio for IC50 of rat liver DHFR to the IC50 of Toxoplasma gondii DHFR; Range: 55-65
[33] = Selectivity index was determined by the ratio for IC50 of rat liver DHFR to the IC50 of Pneumocystis carinii DHFR; Range: 80-150
[34] = Selectivity index was determined by the ratio for IC50 of rat liver DHFR to the IC50 of Mycobacterium avium DHFR; Range: 140-230
Dihydrofolate reductase [35] = target: T2, Dihydrofolate reductase; experiment: Concentration required to inhibit the Mycobacterium avium Dihydrofolate reductase by 50% was determined; Range: 6.5-8.0
Dihydrofolate reductase [36] = target: T4, Dihydrofolate reductase; experiment: Concentration required to inhibit the rat liver Dihydrofolate reductase by 50% was determined; Range: 1100-1500
[37] = target: T1, Bifunctional dihydrofolate reductase-thymidylate synthase; experiment: Concentration required to inhibit the Toxoplasma gondii Dihydrofolate reductase by 50% was determined
Dihydrofolate reductase [38] = target: T4, Dihydrofolate reductase; experiment: Concentration required to inhibit the rat liver Dihydrofolate reductase by 50% was determined
[39] = target: T1, Bifunctional dihydrofolate reductase-thymidylate synthase; remark: listed apart in the source
Description: Concentration required to inhibit the Toxoplasma gondii Dihydrofolate reductase by 50% was determined; Range: 12-24

Dihydrofolate reductase [40] = target: T2, Dihydrofolate reductase; remark: listed apart in the source
Description: Concentration required to inhibit the Mycobacterium avium Dihydrofolate reductase by 50% was determined; Range: 6.2-11

Dihydrofolate reductase [41] = target: T3, Dihydrofolate reductase; experiment: Concentration required to inhibit the Pneumocystis carinii Dihydrofolate reductase by 50% was determined; Range: 18-25
Dihydrofolate reductase [42] = target: T4, Dihydrofolate reductase; experiment: Concentration required to inhibit the rat liver Dihydrofolate reductase by 50% was determined; Range: 250-300
[43] = Selectivity index was determined by the ratio for IC50 of rat liver DHFR to the IC50 of Mycobacterium avium DHFR; Range: 23-48
[44] = Selectivity index was determined by the ratio for IC50 of rat liver DHFR to the IC50 of Pneumocystis carinii DHFR; Range: 10-17
[45] = Selectivity index was determined by the ratio for IC50 of rat liver DHFR to the IC50 of Toxoplasma gondii DHFR; Range: 10-25
[46] = target: T1, Bifunctional dihydrofolate reductase-thymidylate synthase; experiment: Concentration required to inhibit the Toxoplasma gondii Dihydrofolate reductase by 50% was determined; […]
Dihydrofolate reductase [47] = target: T4, Dihydrofolate reductase; experiment: Concentration required to inhibit the rat liver Dihydrofolate reductase by 50% was determined; […]
Dihydrofolate reductase [48] = target: T3, Dihydrofolate reductase; experiment: Concentration required to inhibit the Pneumocystis carinii Dihydrofolate reductase by 50% was determined; Range: 58-110
[49] = Selectivity index was determined by the ratio for IC50 of rat liver DHFR to the IC50 of Toxoplasma gondii DHFR; Range: 53-113
[50] = Selectivity index was determined by the ratio for IC50 of rat liver DHFR to the IC50 of Mycobacterium avium DHFR; […]

## Nc1nc(N)c2nc(CN3c4ccccc4C=Cc4cc(O)ccc43)cnc2n1
[1]
  IC50: 26 nM
Dihydrofolate reductase [2]
  IC50: 1.3 nM
Dihydrofolate reductase [3]
  IC50: 31 nM
Dihydrofolate reductase [4]
  IC50: 410 nM
[5]
  SI: 320
[6]
  SI: 13
[7]
  SI: 16

## Nc1nc(N)c2nc(CN3c4ccccc4C=Cc4cc(OCc5ccc(C(=O)O)cc5)ccc43)cnc2n1
[8]
  IC50: 22 nM
Dihydrofolate reductase [9]
  IC50: 0.75 nM
Dihydrofolate reductase [10]
  IC50: 1 nM
Dihydrofolate reductase [11]
  IC50: 580 nM

## COc1ccc(OC)c(CCc2cnc3nc(N)nc(N)c3c2C)c1
[12]
  SI: 98

## Nc1nc(N)c2nc(CN3c4ccccc4C=Cc4cc(OCCC(=O)O)ccc43)cnc2n1
[13]
  IC50: 28 nM
Dihydrofolate reductase [14]
  IC50: 4 nM
Dihydrofolate reductase [15]
  IC50: 24 nM
Dihydrofolate reductase [16]
  IC50: 1100 nM
[17]
  SI: 280
[18]
  SI: 46
[19]
  SI: 39

## CCOc1cc(Cc2cnc(N)nc2N)cc(OCC)c1-n1cccc1 [EPIROPRIM]
[20]
  IC50: 900 nM
Dihydrofolate reductase [21]
  IC50: 600000 nM
Dihydrofolate reductase [22]
  IC50: 600000 nM
Dihydrofolate reductase [23]
  IC50: 4.1 nM
[12]
  SI: 670

## CCCOc1cc(NCc2cnc3nc(N)nc(N)c3c2C)cc(OCCC)c1
Dihydrofolate reductase [23]
  IC50: 0.19 nM
[24]
  SI: 7300

## CCc1nc(N)nc(N)c1-c1ccc(Cl)c(/N=N/N(CCOC(C)=O)Cc2ccccc2)c1
Dihydrofolate reductase [23]
  IC50: < 1 nM
[25]
  SI: > 1000

## Nc1nc(N)c2nc(CN3c4ccccc4C=Cc4cc(OCCCC(=O)O)ccc43)cnc2n1
[26]
  IC50: 9.9 nM
Dihydrofolate reductase [27]
  IC50: 1.1 nM
Dihydrofolate reductase [28]
  IC50: 1500 nM
Dihydrofolate reductase [29]
  IC50: 2 nM

## Nc1nc(N)c2nc(CN3c4ccccc4C=Cc4cc(OCCCCC(=O)O)ccc43)cnc2n1
[30]
  IC50: 21 nM
Dihydrofolate reductase [31]
  IC50: 11 nM
[32]
  SI: 62
[33]
  SI: 120
[34]
  SI: 180
Dihydrofolate reductase [35]
  IC50: 7.2 nM
Dihydrofolate reductase [36]
  IC50: 1300 nM

## Nc1nc(N)c2nc(CSc3ccc(Sc4ccccc4)cc3)cnc2n1
[37]
  IC50: 770 nM
Dihydrofolate reductase [38]
  IC50: 250000 nM
[12]
  SI: 320

## Nc1nc(N)c2nc(CN3c4ccccc4C=Cc4cc(OCC(=O)O)ccc43)cnc2n1
[39]
  IC50: 17 nM
Dihydrofolate reductase [40]
  IC50: 8.2 nM
Dihydrofolate reductase [41]
  IC50: 21 nM
Dihydrofolate reductase [42]
  IC50: 280 nM
[43]
  SI: 34
[44]
  SI: 13
[45]
  SI: 16

## Nc1nc(N)c2nc(CN3c4ccccc4C=Cc4ccccc43)cnc2n1
[46]
  IC50: 39 nM
Dihydrofolate reductase [47]
  IC50: 3000 nM
Dihydrofolate reductase [48]
  IC50: 79 nM
[49]
  SI: 77
[50]
  SI: 250
